# Measured values reported in patent US10405547B2, “Substituted cyclic amides as herbicides” (FMC Corporation, priority 2015, dated 2019).
# Legend:
# Format in all cases: in vivo
# [1] = system: pigweed (Amaranthus retroflexus); assay: Test A preemergence, pigweed; conditions: 0 to 100 scale (0 no effect, 100 complete control)
# Outline: (§1)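 Visual injury on a 0 to 100 scale, about 10 days post-spray in the greenhouse. Postemergence plants measured 2–10 cm at one to two leaves; preemergence pots received a directed soil spray. Soil was a loam–sand blend.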
# [2] = system: ducksalad (Heteranthera limosa); assay: Test B flooded paddy test, ducksalad; conditions: 250 g ai/ha, applied to paddy water, visual rating after 13 to 15 days, scale 0 (no effect) to 100 (complete control)
# Outline: (§2)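 In-water treatment: compound dosed into 3 cm flood over soil, water level unchanged throughout. Controls run alongside; visual assessment at day 13–15.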
# [3] = system: barnyardgrass (Echinochloa crus-galli); assay: Test B flooded paddy test, barnyardgrass; conditions: 250 g ai/ha, applied to paddy water, visual rating after 13 to 15 days, scale 0 (no effect) to 100 (complete control)
# Outline: as §2
# [4] = system: barnyardgrass (Echinochloa crus-galli); assay: Test A postemergence, barnyardgrass; conditions: visual injury, 0 to 100 scale (0 no effect, 100 complete control), approximately 10 days
# Outline: as §1
# [5] = system: foxtail, giant (Setaria faberii); assay: Test A preemergence, giant foxtail; conditions: 0 to 100 scale (0 no effect, 100 complete control)
# Outline: as §1
# kochia (Kochia scoparia) [6] = assay: Test A preemergence, kochia; conditions: 0 to 100 scale (0 no effect, 100 complete control)
# Outline: as §1
# [7] = system: galium (catchweed bedstraw, Galium aparine); assay: Test A postemergence, galium; conditions: visual injury, 0 to 100 scale (0 no effect, 100 complete control), approximately 10 days
# Outline: as §1
# [8] = system: ragweed (common ragweed, Ambrosia elatior); assay: Test A postemergence, ragweed; conditions: visual injury, 0 to 100 scale (0 no effect, 100 complete control), approximately 10 days
# Outline: as §1
# kochia (Kochia scoparia) [9] = assay: Test A postemergence, kochia; conditions: visual injury, 0 to 100 scale (0 no effect, 100 complete control), approximately 10 days
# Outline: as §1
# [10] = system: foxtail, giant (Setaria faberii); assay: Test A postemergence, giant foxtail; conditions: visual injury, 0 to 100 scale (0 no effect, 100 complete control), approximately 10 days
# Outline: as §1
# rice (Oryza sativa) = assay: Test B flooded paddy test, rice; conditions: 250 g ai/ha, applied to paddy water, visual rating after 13 to 15 days, scale 0 (no effect) to 100 (complete control)
# Outline: as §2
# [11] = system: pigweed (Amaranthus retroflexus); assay: Test A postemergence, pigweed; conditions: visual injury, 0 to 100 scale (0 no effect, 100 complete control), approximately 10 days
# Outline: as §1
# [12] = system: wheat (Triticum aestivum); assay: Test A postemergence, wheat; conditions: visual injury, 0 to 100 scale (0 no effect, 100 complete control), approximately 10 days
# Outline: as §1
# [13] = system: sedge, umbrella (small-flower umbrella sedge, Cyperus difformis); assay: Test B flooded paddy test, umbrella sedge; conditions: 250 g ai/ha, applied to paddy water, visual rating after 13 to 15 days, scale 0 (no effect) to 100 (complete control)
# Outline: as §2
# [14] = system: ryegrass, Italian (Lolium multiflorum); assay: Test A preemergence, Italian ryegrass; conditions: 0 to 100 scale (0 no effect, 100 complete control)
# Outline: as §1
# [15] = system: blackgrass (Alopecurus myosuroides); assay: Test A postemergence, blackgrass; conditions: visual injury, 0 to 100 scale (0 no effect, 100 complete control), approximately 10 days
# Outline: as §1
# [16] = system: ryegrass, Italian (Lolium multiflorum); assay: Test A postemergence, Italian ryegrass; conditions: visual injury, 0 to 100 scale (0 no effect, 100 complete control), approximately 10 days
# Outline: as §1
# [17] = system: barnyardgrass (Echinochloa crus-galli); assay: Test A preemergence, barnyardgrass; conditions: 0 to 100 scale (0 no effect, 100 complete control)
# Outline: as §1
# corn (Zea mays) = assay: Test A postemergence, corn; conditions: visual injury, 0 to 100 scale (0 no effect, 100 complete control), approximately 10 days
# Outline: as §1
# [18] = system: ragweed (common ragweed, Ambrosia elatior); assay: Test A preemergence, ragweed; conditions: 0 to 100 scale (0 no effect, 100 complete control)
# Outline: as §1
SMILES,"Plant response rating, Pigweed ([1]; 125 g ai/ha)","Plant response rating, Pigweed ([1]; 500 g ai/ha)","Plant response rating, Ducksalad (Flood) [2]","Plant response rating, Barnyardgrass (Flood) [3]","Plant response rating, Barnyardgrass ([4]; 125 g ai/ha)","Plant response rating, Barnyardgrass ([4]; 500 g ai/ha)","Plant response rating, Foxtail, Giant ([5]; 125 g ai/ha)","Plant response rating, Foxtail, Giant ([5]; 500 g ai/ha)","Plant response rating, Kochia (kochia (Kochia scoparia) [6]; 125 g ai/ha)","Plant response rating, Kochia (kochia (Kochia scoparia) [6]; 500 g ai/ha)","Plant response rating, Galium ([7]; 125 g ai/ha)","Plant response rating, Galium ([7]; 500 g ai/ha)","Plant response rating, Ragweed ([8]; 125 g ai/ha)","Plant response rating, Ragweed ([8]; 500 g ai/ha)","Plant response rating, Kochia (kochia (Kochia scoparia) [9]; 125 g ai/ha)","Plant response rating, Kochia (kochia (Kochia scoparia) [9]; 500 g ai/ha)","Plant response rating, Foxtail, Giant ([10]; 125 g ai/ha)","Plant response rating, Foxtail, Giant ([10]; 500 g ai/ha)","Plant response rating, Rice (Flood) (rice (Oryza sativa))","Plant response rating, Pigweed ([11]; 125 g ai/ha)",other results
CC1(COc2cccc(C3CNC(=O)C3C(=O)Nc3ccccc3C(F)(F)F)c2)COC1 (stereo not drawn) [Compound 15],0,0,50,0,0,0,10,40,0,0,0,0,0,30,0,0,10,20,0,0,"Plant response rating, Pigweed ([11]; 500 g ai/ha): 0; Plant response rating, Wheat ([12]; 125 g ai/ha): 0; Plant response rating, Wheat ([12]; 500 g ai/ha): 0; Plant response rating, Sedge, Umbrella (Flood) [13]: 0; Plant response rating, Ryegrass, Italian ([14]; 125 g ai/ha): 0; Plant response rating, Ryegrass, Italian ([14]; 500 g ai/ha): 0; Plant response rating, Blackgrass ([15]; 125 g ai/ha): 0; Plant response rating, Blackgrass ([15]; 500 g ai/ha): 0; Plant response rating, Ryegrass, Italian ([16]; 125 g ai/ha): 0; Plant response rating, Ryegrass, Italian ([16]; 500 g ai/ha): 0; Plant response rating, Barnyardgrass ([17]; 125 g ai/ha): 0; Plant response rating, Barnyardgrass ([17]; 500 g ai/ha): 60; Plant response rating, Corn (corn (Zea mays); 125 g ai/ha): 0; Plant response rating, Corn (corn (Zea mays); 500 g ai/ha): 0; Plant response rating, Ragweed ([18]; 125 g ai/ha): 0; Plant response rating, Ragweed ([18]; 500 g ai/ha): 0"
CC1(COc2cccc(C3CNC(=O)C3C(=O)Nc3ccccc3Cl)c2)COC1 (stereo not drawn) [Compound 16],0,0,30,0,0,50,10,70,0,0,0,0,0,0,0,0,0,20,0,0,"Plant response rating, Pigweed ([11]; 500 g ai/ha): 0; Plant response rating, Wheat ([12]; 125 g ai/ha): 0; Plant response rating, Wheat ([12]; 500 g ai/ha): 0; Plant response rating, Sedge, Umbrella (Flood) [13]: 30; Plant response rating, Ryegrass, Italian ([14]; 125 g ai/ha): 0; Plant response rating, Ryegrass, Italian ([14]; 500 g ai/ha): 0; Plant response rating, Blackgrass ([15]; 125 g ai/ha): 0; Plant response rating, Blackgrass ([15]; 500 g ai/ha): 0; Plant response rating, Ryegrass, Italian ([16]; 125 g ai/ha): 0; Plant response rating, Ryegrass, Italian ([16]; 500 g ai/ha): 0; Plant response rating, Barnyardgrass ([17]; 125 g ai/ha): 0; Plant response rating, Barnyardgrass ([17]; 500 g ai/ha): 60; Plant response rating, Corn (corn (Zea mays); 125 g ai/ha): 0; Plant response rating, Corn (corn (Zea mays); 500 g ai/ha): 0; Plant response rating, Ragweed ([18]; 125 g ai/ha): 0; Plant response rating, Ragweed ([18]; 500 g ai/ha): 0"
O=C1NCC(c2ccccc2Cn2ccc(C(F)(F)F)n2)C1C(=O)Nc1ccccc1F (stereo not drawn) [Compound 59],0,0,0,0,0,30,0,50,0,0,0,0,0,0,0,0,0,20,0,0,"Plant response rating, Pigweed ([11]; 500 g ai/ha): 0; Plant response rating, Wheat ([12]; 125 g ai/ha): 0; Plant response rating, Wheat ([12]; 500 g ai/ha): 0; Plant response rating, Sedge, Umbrella (Flood) [13]: 0; Plant response rating, Ryegrass, Italian ([14]; 125 g ai/ha): 0; Plant response rating, Ryegrass, Italian ([14]; 500 g ai/ha): 0; Plant response rating, Blackgrass ([15]; 125 g ai/ha): 0; Plant response rating, Blackgrass ([15]; 500 g ai/ha): 0; Plant response rating, Ryegrass, Italian ([16]; 125 g ai/ha): 0; Plant response rating, Ryegrass, Italian ([16]; 500 g ai/ha): 0; Plant response rating, Barnyardgrass ([17]; 125 g ai/ha): 0; Plant response rating, Barnyardgrass ([17]; 500 g ai/ha): 40; Plant response rating, Corn (corn (Zea mays); 125 g ai/ha): 0; Plant response rating, Corn (corn (Zea mays); 500 g ai/ha): 0; Plant response rating, Ragweed ([18]; 125 g ai/ha): 0; Plant response rating, Ragweed ([18]; 500 g ai/ha): 0"
"O=C1NCC(c2cccc(Oc3ccc(C(F)(F)F)cn3)c2)C1C(=O)Nc1cccc(F)c1F (single isomer, unassigned) [Compound 47]",0,50,0,0,70,90,90,90,0,0,60,70,0,0,0,60,60,80,0,60,"Plant response rating, Pigweed ([11]; 500 g ai/ha): 70; Plant response rating, Wheat ([12]; 125 g ai/ha): 0; Plant response rating, Wheat ([12]; 500 g ai/ha): 30; Plant response rating, Sedge, Umbrella (Flood) [13]: 0; Plant response rating, Ryegrass, Italian ([14]; 125 g ai/ha): 0; Plant response rating, Ryegrass, Italian ([14]; 500 g ai/ha): 70; Plant response rating, Blackgrass ([15]; 125 g ai/ha): 0; Plant response rating, Blackgrass ([15]; 500 g ai/ha): 20; Plant response rating, Ryegrass, Italian ([16]; 125 g ai/ha): 0; Plant response rating, Ryegrass, Italian ([16]; 500 g ai/ha): 30; Plant response rating, Barnyardgrass ([17]; 125 g ai/ha): 50; Plant response rating, Barnyardgrass ([17]; 500 g ai/ha): 80; Plant response rating, Corn (corn (Zea mays); 125 g ai/ha): 20; Plant response rating, Corn (corn (Zea mays); 500 g ai/ha): 80; Plant response rating, Ragweed ([18]; 125 g ai/ha): 0; Plant response rating, Ragweed ([18]; 500 g ai/ha): 60"
